# Laboratory results: patent US9238014B2, “Pharmaceutical composition for treating alcohol dependency” (priority 2009, dated 2016)
# Where a name gives a salt, the structure may show the parent alone.
# Tested on: male mouse of the C57BL/6J line
# Experiment: Alcohol/water preference (alcohol consumption) after forced alcoholization in mice
# Assay type: in vivo
# Set-up: key to Alcohol/Water preference index (Pref.), Mean / Alcohol/Water preference index (Pref), Mean: Pref = (Alcohol−Water)/(Alcohol+Water); >0 alcohol, <0 water preference
# Details: for Alcohol/Water preference index (Pref), Mean: Example 2, Table D, n = 9; for effect on alcohol consumption (in words): same model and same doses, administered separately or in combination as stated; for Alcohol/Water preference index (Pref.), Mean: Experiment A, single agent 1 mg/kg injected before session, n = 6; for effect on alcoholic preference (in words): on this model and at the doses used, vs saline control, significant if p≦0.05
# Method: All the products used for the treatments are dissolved in saline (0.9% NaCl) so that the injection volume is 10 ml/kg of body weight.
# The animals are kept in their cage throughout the experiment. They are subjected to forced alcoholization, with 10% alcohol as the only drink, for 15 days. They are then returned to normal conditions with water to drink.
# Different groups of mice are constituted depending on the treatments: controls (injected with saline), prazosin 1 mg/kg, cyproheptadine 1 mg/kg, prazosin 1 mg/kg+cyproheptadine 1 mg/kg, prazosin 0.5 mg/kg+cyproheptadine 1 mg/kg,
# The tests begin 24 hours after forced alcoholization is stopped. They proceed during the first two hours of darkness (period of activity), during which the animals have access to a feeder with water and a feeder with alcohol. The amounts of water and of alcohol consumed are measured after said two hours.
# Several sessions of measuring the consumption of water and of alcohol are carried out. For the first 2 sessions (S1-S2) the animals receive an injection of saline; they receive the treatments (prazosin, cyproheptadine, prazosin+cyproheptadine) or saline (for the control group) in the next sessions (T1, T2, T3). The treatments are carried out 10 minutes before each session.
# The Alcohol/Water preference index (Pref.) is calculated as follows: Pref.=(Consumption Alcohol−Water)/(Consumption Alcohol+Water)
# 0<Pref.≦1: Preference for alcohol
# Pref.=0: No preference alcohol vs water
# −1≦Pref.<0: Preference for water (i.e. aversion to alcohol)
# During the sessions for measuring alcohol consumption, the animals receive the treatments 30 minutes before said measurement.
# The results are expressed in mean value and standard error of mean (SEM). The preference indices (Pref) of the treated groups are compared with that of the control group by the bilateral Student t-test for independent groups. The values shown (p vs Con) are the probabilities for the difference between treated group and control group being due to chance. A difference is regarded as statistically significant if p≦0.05.
# The cyproheptadine/alfuzosin, cyproheptadine/terazosin and cyproheptadine/tamsulosin combinations were tested in experimental conditions identical to those described in example 1 above and using the same model.
# [1] = alpha1 antagonist alone 0.5 mg/kg, treatment session T1
# [2] = alpha1 antagonist alone 0.5 mg/kg, treatment session T2
# [3] = alpha1 antagonist alone 0.5 mg/kg, treatment session T3
SMILES,"Alcohol/Water preference index (Pref), Mean [1]","Alcohol/Water preference index (Pref), Mean [2]","Alcohol/Water preference index (Pref), Mean [3]",effect on alcohol consumption (in words),"Alcohol/Water preference index (Pref), Mean (cyproheptadine alone 1 mg/kg, treatment session T1)","Alcohol/Water preference index (Pref), Mean (cyproheptadine alone 1 mg/kg, treatment session T2)","Alcohol/Water preference index (Pref), Mean (cyproheptadine alone 1 mg/kg, treatment session T3)","Alcohol/Water preference index (Pref.), Mean (treatment session T1)","Alcohol/Water preference index (Pref.), Mean (treatment session T2)","Alcohol/Water preference index (Pref.), Mean (treatment session T3)",effect on alcoholic preference (in words),effect on alcohol consumption (in words) (hydrochloride),"effect on alcohol consumption (in words) (listed as cyproheptadine, hydrochloride)"
"COc1cc2nc(N(C)CCCNC(=O)C3CCCO3)nc(N)c2cc1OC (centres unmarked) [Alfuzosin, N-[3-[(4-amino-6,7-dimethoxy-quinazolin-2-yl)-methyl-amino]propyl]tetrahydrofuran-2-carboxamide]",0.59,0.62,0.63,do not have an effect,–,–,–,–,–,–,–,–,–
"CN1CCC(=C2c3ccccc3C=Cc3ccccc32)CC1 [Cyproheptadine, 4-(5H-dibenzo[a,d]cyclohepten-5-ylidene)-1-methylpiperidine hydrochloride]",–,–,–,–,0.91,0.76,0.81,0.92,0.82,0.82,do not have a significant effect,do not have an effect,do not have any effect
"COc1cc2nc(N3CCN(C(=O)c4ccco4)CC3)nc(N)c2cc1OC [Prazosin, 2-[4-(2-furoyl)piperazin-1-yl]-6,7-dimethoxyquinazolin-4-amine]",–,–,–,do not have any effect,–,–,–,0.78,0.57,0.72,do not have a significant effect,–,–
"CCOc1ccccc1OCCN[C@H](C)Cc1ccc(OC)c(S(N)(=O)=O)c1 [Tamsulosin, (R)-5-(2-(2-(2-ethoxyphenoxy)ethylamino)propyl)-2-methoxybenzenesulfonamide]",0.68,0.79,0.77,do not have an effect,–,–,–,–,–,–,–,–,–
"COc1cc2nc(N3CCN(C(=O)C4CCCO4)CC3)nc(N)c2cc1OC (centres unmarked) [Terazosin, 6,7-dimethoxy-2-[4-(tetrahydrofuran-2-ylcarbonyl)piperazin-1-yl]quinazolin-4-amine]",0.64,0.75,0.72,do not have an effect,–,–,–,–,–,–,–,–,–
